Values quoted from earlier work, collected in patent US20240082270A1 (priority 2021, published 2024).
Where two headings read alike, the source gives them in different places.

Tests used:
CB1R = CB1R (Homo sapiens, UniProt P21554)
SARS-CoV-2 [1] = conditions: lung epithelial cells
human CBR = conditions: rather non-selectively
[2] = stress and anxiety
[3] = pharmaceutical CBD, up to 1500 mg/day for 6 weeks
[4] = Lennox-Gastaut and Dravet syndrome
[5] = after oral CBD in rats
[6] = emulsified, small dispersed molecules
mouse bladder = conditions: induced by acetylcholine
5-HT1A receptor = 5-HT1A receptor (Homo sapiens, UniProt P08908)
SARS-CoV-2 [7] = conditions: cohort of human patients previously taking CBD
SARS-CoV-2 spike protein [8] = target: T1, SARS-CoV-2 spike protein (Severe acute respiratory syndrome coronavirus 2, UniProt P0DTC2); conditions: allosteric as well as orthosteric ligands
[9] = system: pseudovirus expressing the SARS-CoV-2 spike protein
[10] = animal studies
[11] = dog; for adverse effects monitored by blood testing: 2 weeks of high twice daily dosing
[12] = system: methicillin resistant Staphylococcus aureus (MRSA)
[13] = not given; remark: listed apart in the source
[14] = mouse, in vivo
[15] = mouse, in vivo; remark: listed apart in the source
[16] = rat, in vivo
[17] = system: store-operated calcium (Ca2+) entry (SOCE); conditions: human T lymphocytes
SARS-CoV-2 spike protein [18] = target: T1, SARS-CoV-2 spike protein
[19] = target: SARS-CoV-2 main proteases (Severe acute respiratory syndrome coronavirus 2, UniProt P0DTD1)
mast cells = conditions: higher concentration
melanoma = conditions: inhibition of E2F1 transcription
[20] = after 30 min ingestion
[21] = if stored properly
[22] = not given; remark: listed apart in the source
protein kinase B = conditions: oxidative muscles
CB2R [23] = target: CB2R (Homo sapiens, UniProt P34972)
[24] = target: acylglycerol lipase, MAG1 (Homo sapiens, UniProt Q99685); conditions: reversible mechanism
mice = conditions: inhaled from ambient air
[25] = chronic or single dose, versus control group without piperine
CB2R [26] = target: T2, CB2R (Mus musculus, UniProt P47936); conditions: oral, <5 mg-kg^−1
T2 construct: host or cells: wild-type mice, in vivo (oral dosing)

[27] = not given; remark: listed apart in the source
[28] = skin models

Chain of acylglycerol lipase, MAG1 (Q99685 whole entry): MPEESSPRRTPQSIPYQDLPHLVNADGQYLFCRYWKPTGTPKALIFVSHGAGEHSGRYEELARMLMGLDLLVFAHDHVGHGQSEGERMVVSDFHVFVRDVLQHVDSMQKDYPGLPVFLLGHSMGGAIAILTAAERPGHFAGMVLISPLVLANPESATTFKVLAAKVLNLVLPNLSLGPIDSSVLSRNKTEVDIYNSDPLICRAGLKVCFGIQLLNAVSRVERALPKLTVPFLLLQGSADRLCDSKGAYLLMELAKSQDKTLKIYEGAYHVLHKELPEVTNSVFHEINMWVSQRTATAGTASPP
Chain of 5-HT1A receptor (P08908 whole entry): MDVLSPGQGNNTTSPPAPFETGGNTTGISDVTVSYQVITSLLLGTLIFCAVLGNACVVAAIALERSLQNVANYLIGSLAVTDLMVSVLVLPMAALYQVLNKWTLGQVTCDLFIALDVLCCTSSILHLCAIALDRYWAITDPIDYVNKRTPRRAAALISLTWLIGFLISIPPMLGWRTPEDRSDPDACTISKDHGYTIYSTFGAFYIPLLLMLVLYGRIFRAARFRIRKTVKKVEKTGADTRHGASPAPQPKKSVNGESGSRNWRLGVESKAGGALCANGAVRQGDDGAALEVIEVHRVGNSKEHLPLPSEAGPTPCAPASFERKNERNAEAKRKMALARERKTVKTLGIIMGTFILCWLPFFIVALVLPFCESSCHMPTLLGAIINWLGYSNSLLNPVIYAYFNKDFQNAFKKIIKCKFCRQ
Chain of CB1R (P21554 whole entry): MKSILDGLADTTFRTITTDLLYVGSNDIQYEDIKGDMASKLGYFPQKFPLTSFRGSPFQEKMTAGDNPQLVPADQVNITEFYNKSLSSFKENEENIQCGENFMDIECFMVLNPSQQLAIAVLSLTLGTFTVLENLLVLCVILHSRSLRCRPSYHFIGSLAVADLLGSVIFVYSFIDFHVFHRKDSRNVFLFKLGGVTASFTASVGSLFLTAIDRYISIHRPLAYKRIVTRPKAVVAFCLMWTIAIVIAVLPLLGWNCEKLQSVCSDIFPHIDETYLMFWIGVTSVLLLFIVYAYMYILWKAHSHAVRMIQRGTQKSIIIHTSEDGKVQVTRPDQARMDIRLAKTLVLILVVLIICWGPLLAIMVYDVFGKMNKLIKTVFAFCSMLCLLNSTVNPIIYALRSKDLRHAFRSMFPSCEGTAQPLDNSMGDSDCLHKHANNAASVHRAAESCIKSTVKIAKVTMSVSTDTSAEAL
Chain of CB2R (Homo sapiens, UniProt P34972) (P34972 whole entry): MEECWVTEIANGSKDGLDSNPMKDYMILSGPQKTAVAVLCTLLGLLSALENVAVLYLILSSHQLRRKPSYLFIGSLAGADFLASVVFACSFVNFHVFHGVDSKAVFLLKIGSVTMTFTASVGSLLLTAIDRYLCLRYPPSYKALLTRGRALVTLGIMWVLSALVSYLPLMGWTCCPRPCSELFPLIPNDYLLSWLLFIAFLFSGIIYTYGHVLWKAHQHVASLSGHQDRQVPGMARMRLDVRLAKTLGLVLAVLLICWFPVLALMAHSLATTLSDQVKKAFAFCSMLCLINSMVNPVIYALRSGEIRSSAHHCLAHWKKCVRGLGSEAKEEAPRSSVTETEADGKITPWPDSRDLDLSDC
T2 sequence (P47936 whole entry): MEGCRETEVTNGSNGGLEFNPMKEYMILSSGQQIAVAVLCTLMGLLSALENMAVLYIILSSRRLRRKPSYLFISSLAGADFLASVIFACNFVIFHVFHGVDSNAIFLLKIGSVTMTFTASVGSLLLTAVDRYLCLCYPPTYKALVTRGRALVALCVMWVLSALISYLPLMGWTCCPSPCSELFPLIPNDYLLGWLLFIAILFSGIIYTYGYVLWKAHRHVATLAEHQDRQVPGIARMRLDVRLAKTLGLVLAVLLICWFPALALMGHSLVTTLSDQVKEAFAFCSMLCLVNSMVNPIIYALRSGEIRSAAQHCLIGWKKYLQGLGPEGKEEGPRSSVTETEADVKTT

## CCCCC/C=C\C/C=C\C/C=C\C/C=C\CCCCOC(CO)CO [2-AGE, 2-arachidonyl glyceryl ether]
CB1R; read-out: Ki
  Ki: 0.0212 µM

## C=C(C)[C@@H]1CCC(CO)=C[C@H]1c1c(O)cc(CCCCC)cc1O [7-OH-CBD]
SARS-CoV-2 [1]
  SARS-CoV-2 replication: block SARS-CoV-2 replication

## Oc1cc(O)c2c(c1)O[C@H](c1cc(O)c(O)c(O)c1)[C@H](O)C2 [(−)-epigallocatechin]
Human CBR
  concentrations at which binding to human CBR was shown: high μM concentrations

## CCCCCc1cc(O)c2c(c1)OC(C)(CCC=C(C)C)C=C2 (centres unmarked) [CBC, cannabichromene]
[2]
  potency relative to CBD: up to 10 times

## C=C(C)[C@@H]1CCC(C)=C[C@H]1c1c(O)cc(CCCCC)cc1O [CBD, Cannabidiol]
[3]
  physical withdrawal symptoms: No physical withdrawal symptoms were observed
[4]
  reduction in seizures rate: 50%
Effect of light, after 30 days
  degradation, average values: up to 15%
Stored at 37° C. for 30 days
  degradation, average values: up to 20%
[5]
  time of peak brain concentration: 6 h
  time of peak serum level: 1 h
[6]
  sublingually absorbed: up to 35%
SARS-CoV-2 [1]
  SARS-CoV-2 replication: block SARS-CoV-2 replication
Mouse bladder
  ranked potency of detrusor contraction inhibition: CBG=THCV>CBD>CBDV, but not CBC
5-HT1A receptor
  concentration that synergistically enhances other 5-HT1A receptor agonists: 100 nM
  concentrations at which the 5-HT1A receptor is activated: above 10 μM
SARS-CoV-2 [7]
  SARS-CoV-2 infection incidence: significantly lower

## C=C(C)[C@@H]1CCC(C)=C[C@H]1c1c(O)cc(CCCCC)c(C(=O)O)c1O [CBDA]
SARS-CoV-2 spike protein [8]
  affinity for the spike protein: micromolar affinity
Live SARS-CoV-2
  entry of live SARS-CoV-2 into cells: prevented entry
[9]
  infection of human epithelial cells by pseudovirus: prevented infection

## C=C(C)[C@@H]1CCC(C)=C[C@H]1c1c(O)cc(CCC)cc1O [CBDV, Cannabidivarin]
Mouse bladder
  ranked potency of detrusor contraction inhibition: CBG=THCV>CBD>CBDV, but not CBC
[10]
  time of peak brain concentrations: 30 min

## C=C(C)[C@@H]1CCC(C)=C[C@H]1c1c(O)cc(CCC)c(C(=O)O)c1O [CBDVA]
[10]
  time of peak brain concentrations: 15 min

## CCCCCc1cc(O)c(C/C=C(\C)CCC=C(C)C)c(O)c1 [CBG, cannabigerol]
[11]
  adverse effects monitored by blood testing: no adverse effects
[12]; MRSA
  efficacy in murine systemic infection model: demonstrate in vivo efficacy
[12]; mouse, in vivo
  MRSA biofilm formation: represses MRSA biofilm formation
[13]; oral ingestion
  bioavailability: 13-19%
[13]; sublingual administration
  bioavailability: 13-56%
[13]; topical applications
  bioavailability: 5-10%
[14]
  rotarod performance: significantly recovered their rotarod performance
Mouse bladder
  ranked potency of detrusor contraction inhibition: CBG=THCV>CBD>CBDV, but not CBC
[15]
  effect on hyperthermia-induced seizures: Neither CBG nor CBGV affected thresholds
Human bladder
  acetylcholine-induced contractions: reduce acetylcholine-induced contractions
[16]
  appetite: increased appetite
[10]
  time of peak brain concentrations: 120 min

## CCCCCc1cc(O)c(C/C=C(\C)CCC=C(C)C)c(O)c1C(=O)O [CBGA, cannabigerolic acid]
[11]
  adverse effects monitored by blood testing: no adverse effects
[11]; with or without food
  oral absorption: orally absorbed significantly better than CBG
SARS-CoV-2 spike protein [8]
  affinity for the spike protein: micromolar affinity
Live SARS-CoV-2
  entry of live SARS-CoV-2 into cells: prevented entry
[17]
  potency against SOCE (blocking CRAC currents): dose-dependent high potency
[15]
  effect on hyperthermia-induced seizures: more effective for seizures triggered by a febrile event than CBD
[9]
  infection of human epithelial cells by pseudovirus: prevented infection
[10]
  time of peak brain concentrations: 45 min

## CCCc1cc(O)c(C/C=C(\C)CCC=C(C)C)c(O)c1 [CBGV, cannabigerovarin]
[15]
  effect on hyperthermia-induced seizures: Neither CBG nor CBGV affected thresholds
[10]
  time of peak brain concentrations: 30 min

## CCCc1cc(O)c(C/C=C(\C)CCC=C(C)C)c(O)c1C(=O)O [CBGVA, cannabigerovarinic acid]
[10]
  time of peak brain concentrations: 15 min

## Nc1ncnc2c1ncn2[C@@H]1O[C@H](CO)C[C@H]1O [Cordycepin, 3′-deoxyadenosine]
SARS-CoV-2 spike protein [18]
  binding affinity: −145.3
[19]
  binding affinity: −180.5

## C=CCc1ccc(O)c(OC)c1 [Eugenol]
Mast cells
  concentration leading to translocation of phospho-Ser15-p53 into mitochondria: 700 µmol/L
HL-60 leukemia cells
  concentration inducing apoptosis: 40 µmol/L
melanoma
  concentration inhibiting melanoma growth: 0.5 to 2.5 µmol⁻¹

## CC(C)=CCC/C(C)=C/CO [Geraniol]
[20]
  bioavailability: 92%

## C[C@H]1CC[C@@H](C(C)(C)O)CC2=C1CC[C@@H]2C [Guaiol]
[21]
  Shelf Life: ≥ 12 month(s)

## CCCCCc1cc(OC)c(C/C=C(\C)CCC=C(C)C)c(OC(=O)CCN2CCOCC2)c1 [HUM-234, Monomethoxycannabigeroyl-β-morpholinoproprionate]
[22]; mice fed a high-fat diet (HFD)
  obesity: prevents obesity
[22]; mouse, in vivo
  TNF-α levels: increases TNF-α at higher doses

## C[C@@H](O)CC(=O)O [R-BHB]
Protein kinase B
  inhibition of insulin-mediated phosphorylation of protein kinase B: 50%

## CCCCCc1cc(O)c(C/C=C(\C)CC/C=C(\C)CCC=C(C)C)c(O)c1 [Sesquicannabigerol]
CB2R [23]; relative to CBG
  affinity at CB2R higher than CBG: 5 fold

## CCCCCc1cc(OC(=O)CCC(=O)O)c2c(c1)OC(C)(C)[C@@H]1CCC(C)=C[C@@H]21 [THC-HS, THC-hemisuccinate]
[13]; rectal
  bioavailability: 70-80%

## CCCc1cc(O)c2c(c1)OC(C)(C)[C@@H]1CCC(C)=C[C@@H]21 [THCV, tetrahydrocannabivarin]
Mouse bladder
  ranked potency of detrusor contraction inhibition: CBG=THCV>CBD>CBDV, but not CBC
[15]
  effect on hyperthermia-induced seizures: resulted in seizures at lower temperature thresholds
[10]
  time of peak brain concentrations: 30 min

## O=C(O[C@@H]1Cc2c(O)cc(O)cc2O[C@@H]1c1cc(O)c(O)c(O)c1)c1cc(O)c(O)c(O)c1 [epigallocatechin β-gallate]
Human CBR
  concentrations at which binding to human CBR was shown: high μM concentrations

## CC(C)=CCC[C@@H](C)[C@@H]1CC[C@]2(C)C3=C(CC[C@@]12C)[C@@]1(C)CC[C@H](O)C(C)(C)[C@@H]1CC3 [euphol]
[24]; read-out: IC50
  IC50: 0.315 µM

## C=C[C@H](O)C#CC#CC/C=C\CCCCCCC [falcarinol]
CB1R; read-out: Ki value, CB1R
  Ki: < 1 µM

## C=C(C)[C@H]1CC=C(C)CC1 [limonene]
mice
  increase in motility: 35.25%

## C=CC(C)(O)CCC=C(C)C (centres unmarked) [linalool]
mice
  reduction in motility: 73%

## O=C(/C=C/C=C/c1ccc2c(c1)OCO2)N1CCCCC1 [piperine, Piperine]
[25]
  increase in oral bioavailability of CBD: ~2.5 fold

## COC(=O)[C@]1(C)CC[C@]2(C)CC[C@]3(C)C4=CC=C5C(=CC(=O)C(O)=C5C)[C@]4(C)CC[C@@]3(C)[C@@H]2C1 [pristimerin]
[24]
  IC50: 0.093 µM

## C=C1CC/C=C(\C)CC[C@@H]2[C@@H]1CC2(C)C [β-caryophyllene]
CB2R [26]
  anti-inflammatory and analgesic effects: strong anti-inflammatory and analgesic effects in wild-type mice but not in CB2 receptor knockout mice
CB2R [23]; CB2R, full agonist
  Ki: 0.155 µM
[27]; one single oral administration
  Tmax: > 1 h
[27]; orally administered
  maximal onset: 1 h

## CC[C@H](CC[C@@H](C)[C@H]1CC[C@H]2[C@@H]3CC=C4C[C@@H](O)CC[C@]4(C)[C@H]3CC[C@]12C)C(C)C [β-sitosterol]
[28]
  reduction of chronic edema: 41%
  reduction of topical inflammation: 65%

## pinene
mice
  increase in motility: 13.77%
